Tested on: T1, cholesterol oxidase (ChoX, ChOx)
T1 construct: native extracellular enzyme purified from culture supernatant (ammonium sulfate, Q-Sepharose)
Assay: HRP-coupled 4-aminoantipyrine/phenol quinoneimine assay at […] nm, Lineweaver-Burk
Type: biochemical, Escherichia fergusonii
Details: optimum conditions (30 °C, pH 7.5, in the presence of MgSO4 per abstract); KPB; cholesterol 0.1-3.0 mM in Triton X-100; O2 co-substrate

CC(C)CCC[C@@H](C)[C@H]1CC[C@H]2[C@@H]3CC=C4C[C@@H](O)CC[C@]4(C)[C@H]3CC[C@]12C [cholesterol]
Km: 710 µM

Source: publication PMC11744973, “Optimized extraction and kinetic study of cholesterol oxidase from a newly isolated Escherichia fergusonii strain from local whey samples: insights through a combined experimental study and artificial neural network modeling” (BMC Microbiology, 2025)
